The source of these data is US20090054376A1, “BENZOFURAN DERIVATIVES WITH THERAPEUTIC ACTIVITIES” (Pharmos Corporation, priority 2005, published 2009).

Molecules are shown by their SMILES. Structures can show the parent of a compound that is named as a salt. Where two headings read alike, the source gives them in different places. Where only a bound is given, the exact number is not on record here.

The subject of assay [1] is visceral pain writhing responses. Nature of the assay: Visceral pain, acetic acid induced writhing responses. The format is in vivo, Male ICR mice. As to conditions: for inhibition in vivo at 2 mg/kg: Mus musculus, iv, read-out: Percent Inhibition of Visceral Pain Writhing Responses; for inhibition in vivo at 2 mg/kg / Percent Inhibition of Visceral Pain Writhing Responses: single dose 2 mg/kg i.v., compared to untreated group. As for the experimental part:
Male ICR mice (average body weight 25 g, Harlan, Israel) were pretreated by i.v. injection at volume dose of 5 ml/kg of vehicle, control and test compounds at various doses. Other routes of administration were tested for selected compounds including i.m. or s.c. injections at volume dose of 2.5 ml/kg and p.o. gavage at volume dose of 5 ml/kg. Compounds were dissolved in CREMOPHOR®:Ethanol and diluted 1:20 in saline prior to injection or gavage. Compounds administered i.v. were injected fifteen minutes before pain induction, whereas compounds administered i.m., s.c. or p.o. were supplied thirty minutes before pain induction, unless otherwise indicated. Each treatment group, except for controls comprising at least 30 animals, was composed of at least 6 animals. Fifteen or thirty minutes after drug administration, depending on the route of administration, the mice were injected i.p. with 10 ml/kg of 0.6% acetic acid and the number of visceral pain related behaviors (writhing movements globally defined as WR, i.e. stretching, contractions of the abdomen accompanied by an elongation of the body and extension of the hind limbs) was counted over a period of 5 minutes, starting 5 minutes after the acetic acid administration. These visceral pain related behaviors were globally defined as writhing responses (WR). The results are expressed as mean number of writhing responses ±SEM. Data were analyzed using analysis of variance (ANOVA) followed by post-hoc Fisher test.
On the technique in general: In writhing tests, fewer writhes than in controls are read as antinociception.

Assay [2] relates to carrageenan induced inflammatory pain and paw edema. Nature of the assay: Inflammatory pain and paw edema induced by carrageenan. As to conditions: for Percent Inhibition of Inflammatory Pain Responses, Edema / Percent Inhibition of Inflammatory Pain Responses, ΔForce / Percent Inhibition of Inflammatory Pain Responses, ΔLT / inhibition in vivo at 10 mg/kg: 10 mg/kg i.p.; for inhibition in vivo at 20 mg/kg / inhibition in vivo at 10 mg/kg: Rattus norvegicus, ip; for inhibition in vivo at 20 mg/kg: 20 mg/kg i.p. (two asterisks). The format is in vivo, Male Sprague Dawley rats. Here is the method: Male Sprague Dawley rats (average body weight 200 g, Harlan, Israel) were transiently sedated by placement on dry ice for the duration of the injections. Rats were injected subcutaneously, in the subplantar region of one (right) paw with 0.1 ml of 2% w/v λ Carrageenan in sterile saline. […] Test compounds were, unless otherwise stated, administered i.p. at initial single dose of 3, 10 or 20 mg/kg, and volume dose of 5 ml/kg, immediately after the carrageenan injection. Selected compounds were also tested p.o. following oral gavage. Vehicle and celecoxib treated animals were used as controls. Each treatment group comprised at least seven animals.
Before induction of inflammatory pain and three hours after injection, the animals reactions to pain stimuli were tested in two systems. The first stimulus was thermal and assessed by the Plantar Test according to Hargreaves, using Ugo Basile Model 7370. The scale was set to an intensity of 50 arbitrary units. The latency time till the animal lift a paw as a reaction to the thermal stimulus was recorded for both the inflamed and non-inflamed hind paws. The second stimulus was mechanical (tactile) and assessed using a Dynamic Plantar Sesthesiomether (Ugo Basile Model 73400-002). […] Finally, the impact on paw edema was assessed. Paw thickness was measured using a dial thickness gauge (Spring-dial, constant low pressure gauge, Mitutoyo, TG/L-1, 0.01 mm) and paw volume was measured using a plethysmometer (model #7150, Ugo Basile, Italy). At the end of the study, animals were euthanized.
The results are measured as the differences between the two hind paws at time 0 and 3 hours both as ALT, for the latency time in the thermal part of the study, and as ΔForce, for the mechanical part of the study. The paw volume is expressed as percent from vehicle treated animals. Results are expressed as mean±SEM for each treatment group and the differences among those groups are analyzed by analysis of variance (ANOVA) followed by post-hoc Tukey's test.
Results refer to i.p. treatment with 10 mg/kg. Results marked with one asterisk refer to a dose 3 mg/kg, whereas two asterisks refer to 20 mg/kg. Celecoxib is included as reference.

Where [3] appears, read: 3 hours after carrageenan, reduction in paw swelling.
[4] abbreviates: 3 hours, mechanical stimulus, read-out: Percent Inhibition of Inflammatory Pain Responses, ΔForce.
Where [5] appears, read: 3 hours, reduction in paw swelling, read-out: Percent Inhibition of Inflammatory Pain Responses, Edema.
[6] abbreviates: 3 hours, thermal stimulus, read-out: Percent Inhibition of Inflammatory Pain Responses, ΔLT.
[7] abbreviates: 3 hours after carrageenan, reduction in paw swelling, read-out: Percent Inhibition of Inflammatory Pain Responses, Edema.

Turning to `CCCCCCC(C)(C)c1cc(OC(=O)CCNC)c2c(c1)OC1CC(C)(C)CCC21` (stereo not shown) [Compound C6S-39, 3-Methylamino-propionic acid 3-(1,1-dimethylheptyl)-7,7-dimethyl-5a,6,7,8,9,9a-hexahydro-dibenzofuran-1-yl ester], the “inhibition of writhing responses” value in assay [1] (0.02 mg/kg i.v., compared to vehicle) is on record as 38%. The “inhibition of pain response” value in assay [1] (0.08 mg/kg i.v.) is reported as “totally inhibited pain response”. Besides, the “fold more potent than morphine” value in assay [1] (IC50 in visceral pain, i.v.) was determined as 35 fold. In addition, in assay [1], the inhibition in vivo at 2 mg/kg was > 90%. The “IC50 in visceral pain” value in assay [1] (i.v., estimated or calculated from dose range) was 0.03 mg/kg.
As to `CCCCCCC(C)(C)c1cc(O)c2c(c1)OC1(C)C(C)CCC21` (stereo not drawn) [Compound C5S-4, 6-(1,1-dimethylheptyl)-1,8a-dimethyl-2,3,3a,8a-tetrahydro-1H-8-oxa-cyclo-penta[α]inden-4-ol], in assay [2] (setting [3]), the “Percent Inhibition of Inflammatory Pain Responses, Edema” value (shortened to “Percent Inhibition … Edema”) came out at 49%. For the same molecule, the “Percent Inhibition of Inflammatory Pain Responses, ΔForce” value (“Percent Inhibition … ΔForce” below) in assay [2] (3 hours, mechanical stimulus) is on record as 88%. Also, the “Percent Inhibition of Inflammatory Pain Responses, ΔLT” value (“Percent Inhibition … ΔLT” below) in assay [2] (3 hours, thermal stimulus) stood at 100%.
With `CCCCCCC(C)(C)c1cc(O)c2c(c1)OC1C(N)CCCCC21` (stereo not drawn) [C7S-32 HCl salt, 9-Amino-2-(1,1-dimethylheptyl)-5,6,7,8,9,9a-hexahydro-4bH-10-oxa-benzo[α]azulen-4-ol], the “inhibition of pain (writhing) response” value in assay [1] (4 mg/kg i.v.) is 50%; in assay [1] (10 mg/kg i.v.), 84%.
On to `CCCCC(C)(C)c1cc2c(c(OP(=O)(O)O)c1)C1CCCCC1O2` (stereo not shown) [Compound C6S-16, Phosphoric acid mono-[3-(1,1-dimethylpentyl)-5a,6,7,8,9,9a-hexahydro-dibenzofuran-1-yl]ester], for which the inhibition in vivo at 20 mg/kg in assay [2] (setting [4]) came to 6%; in assay [2] (setting [5]) it was 31%; in assay [2] (setting [6]), 69%.
Take `Cc1ccc(-c2cc(C(F)(F)F)nn2-c2ccc(S(N)(=O)=O)cc2)cc1` [Celecoxib, reference compound]: the “activity in visceral pain model” value in assay [1] (doses up to 10 mg/kg) was “inactive”. Besides, the “Percent Inhibition … ΔForce” value in assay [2] (3 hours, mechanical stimulus) came out at 2%. The inhibition in vivo at 10 mg/kg came to 45% in assay [2] (setting [7]), 2% in assay [2] (setting [4]) and 58% in assay [2] (setting [6]).
Turning to `CCCCC(C)(C)c1cc(O)c2c(c1)OC1CCCCCC21` (stereo not drawn) [Compound C7S-3, 2-(1,1-dimethylpentyl)-5,6,7,8,9,9a-hexahydro-4bH-10-oxa-benzo[α]azulen-4-ol], the “Percent Inhibition … Edema” value in assay [2] (setting [3]) is 43%. For the same molecule, the “Percent Inhibition … ΔForce” value in assay [2] (3 hours, mechanical stimulus) worked out at 35%. Besides, the “Percent Inhibition … ΔLT” value in assay [2] (3 hours, thermal stimulus) is reported as 46%.
On to `CCCCCCC(C)(C)c1cc(OC(=O)C=CC(=O)O)c2c(c1)OC1(C)C(C)CCC21` (stereo not drawn) [Compound C5S-5, But-2-enedioic acid mono-[6-(1,1-dimethylheptyl)-1,8a-dimethyl-2,3,3a,8a-tetrahydro-1H-8-oxa-cyclopenta[α]inden-4-yl]ester], for which the “Percent Inhibition of Visceral Pain Writhing Responses” value in assay [1] turned out to be 27%.
For the molecule `CCCCCCC(C)(C)c1cc(OCC(=O)O)c2c(c1)OC1CCCCC21` (stereo not shown) [Compound C6S-18, [3-(1,1-dimethylheptyl)-5a,6,7,8,9,9a-hexahydro-dibenzofuran-1-yloxy]-acetic acid], the inhibition in vivo at 20 mg/kg in assay [2] (setting [4]) was 31%; in assay [2] (setting [5]), 48%; in assay [2] (setting [6]) it was 49%.
In the case of `COC(=O)c1cc(O)c2c(c1)OC1CCCCC21` (stereo not shown) [Compound C6S-21, 1-hydroxy-5a,6,7,8,9,9a-hexahydro-dibenzofuran-3-carboxylic acid methyl ester], the values for the inhibition in vivo at 20 mg/kg in assay [2] (setting [5]) and in assay [2] (setting [6]) were 38% and 44%, respectively.
As for `CCCCC(C)(C)c1cc(O)c2c(c1)OC1CCCCC21C` (stereo not shown) [Compound C6S-12, 3-(1,1-dimethylpentyl)-9a-methyl-5a,6,7,8,9,9a-hexahydro-dibenzofuran-1-ol], the results for the inhibition in vivo at 10 mg/kg in assay [2] (setting [7]), in assay [2] (setting [4]) and in assay [2] (setting [6]) were 53%, 37% and 33%, respectively.
With `CCCCCCC(C)(C)c1cc2c(c(OP(=O)(O)O)c1)C1CCCCC(O)C1O2` (stereo not drawn) [Compound C7S-13, Phosphoric acid mono-[2-(1,1-dimethylheptyl)-9-hydroxy-5,6,7,8,9,9a-hexahydro-4bH-10-oxa-benzo[α]azulen-4-yl]ester], the “Percent Inhibition of Visceral Pain Writhing Responses” value in assay [1] worked out at 72%. Besides, in assay [2] (setting [3]), the “Percent Inhibition … Edema” value is 34%. The “Percent Inhibition … ΔForce” value in assay [2] (3 hours, mechanical stimulus) came out at 6%. Besides, the “Percent Inhibition … ΔLT” value in assay [2] (3 hours, thermal stimulus) is listed as 0%.
Regarding `CCCCCCC(C)(C)c1cc(O)c2c3c(oc2c1)CCCC3` [Compound C6M-1, 3-(1,1-Dimethylheptyl)-6,7,8,9-tetrahydro-dibenzo-furan-1-ol], the inhibition in vivo at 10 mg/kg in assay [2] (setting [7]) was found to be 31%; in assay [2] (setting [4]), 12%; in assay [2] (setting [6]) it was 12%.
In the case of `CCCCC(C)(C)c1cc(OCC(O)CO)c2c(c1)OC1CCCCC21` (stereo not shown) [Compound C6S-10, 3-[3-(1,1-Dimethylpentyl)-5a,6,7,8,9,9a-hexahydro-dibenzofuran-1-yloxy]-propane-1,2-diol], the inhibition in vivo at 2 mg/kg in assay [1] turned out to be 28%. The inhibition in vivo at 20 mg/kg worked out at 24% in assay [2] (setting [4]), 37% in assay [2] (setting [5]) and 50% in assay [2] (setting [6]).
Consider `CCCCCCC(C)(C)c1cc(O)c2c(c1)OC1C(N)CCCCC21` (stereo not drawn) [Compound C7S-32, 9-Amino-2-(1,1-dimethylheptyl)-5,6,7,8,9,9a-hexahydro-4bH-10-oxa-benzo[α]azulen-4-ol], for which the “inhibition of pain (writhing) response” value in assay [1] (4 mg/kg i.v.) was found to be 38%; in assay [1] (10 mg/kg i.v.) it was 100%.
